Legend:
Assay type in all cases: cell-based, human
[1] = system: STAT3; test: Western blotting of mammosphere nuclear proteins; settings: MCF-7 cells-derived mammospheres
Experimental: Proteins isolated from ciclesonide-treated MCF-7 or MDA-MB-231 mammospheres were separated on 10% SDS-PAGE and transferred to a polyvinylidene difluoride membrane (Millipore, Bedford, Mass., USA). The membrane was blocked in PBS-Tween 20 (0.1%, v/v) containing 5% skimmed milk at room temperature for 30 minutes. The blot was incubated at 4° C. overnight with a blocking solution containing primary antibodies. The primary antibodies used were as follows: Stat3, p65, Lamin B, and phospho-Stat3 (Cell Signaling, Beverly, Mass., USA). β-actin (Santa Cruz Biotechnology) was used as a loading control. After washing with PBS-Tween 20 (0.1%, v/v), the blot was incubated with horseradish peroxidase-conjugated secondary antibodies, and photosensitized with a chemiluminescence detection kit (Santa Cruz Biotechnology).

[2] = system: Sox2; test: Real-time PCR of CSC markers in tumorspheres; settings: RT-PCR, vs group not treated
Experimental: (§1) The levels of transcripts were measured with a One Step SYBR PrimeScript RT-PCR kit (Takara, Tokyo, Japan) using SYBR green as a double-stranded DNA-specific dye in accordance with the manufacturer's protocol. One-step RT-PCR was performed on 1 μg of total RNA, 10 μl of 2× One Step SYBR RT-PCR Buffer IV, and 1 μl of PrimeScript 1 step Enzyme Mix II using PCR forward and reverse primers of each of CD44, NANOG, OCT4, C-myc, Sox2, Snail, and β-actin at a final volume of 20 μl per reaction.
(§2) The relative expression level of mRNA of the target gene was calculated using a comparative CT method. At least three independent PCR procedures were performed in accordance with statistical analysis. PCR products were normalized with the […] gene as an internal control.

[3] = system: C-myc; test: Real-time PCR of CSC markers in tumorspheres; settings: RT-PCR, vs group not treated
Experimental: as §1, §2

[4] = system: Nanog; test: Real-time PCR of CSC markers in tumorspheres; settings: RT-PCR, vs group not treated
Experimental: as §1, §2

[5] = system: Snail; test: Real-time PCR of CSC markers in tumorspheres; settings: RT-PCR, vs group not treated
Experimental: as §1, §2

[6] = system: MDA-MB-231 cells; test: Clonogenic assay
Experimental: (§3) MDA-MB-231 cells or A549 cells were inoculated at low density in a 6-well plate, and, in a DMEM medium, the MDA-MB-231 cells were treated with different concentrations of ciclesonide, or the A549 cells were treated with 10 μM ciclesonide. After 24 hours, the medium was replaced with a new medium and cultured for […] to allow the cells to grow. The grown colonies were counted.

[7] = system: A549 cells; test: Clonogenic assay; settings: A549, 10 μM
Experimental: as §3

[8] = system: MDA-MB-231 cells; test: Annexin V/PI staining, FACS; settings: MDA-MB-231, 20 μM, 24 hours
Experimental: (§4) Cancer cells were cultured in a 6-well plate for 24 hours along with 20 μM of ciclesonide for the case of breast cancer and 10 μM or 20 μM of ciclesonide or DMSO for the case of lung cancer. In accordance with the manufacturer's protocol, apoptotic cells were double-stained with PI and FITC-Annexin V. The sample was analyzed by flow cytometry (Accuri C6, BD, San Diego, Calif., USA).

[9] = system: A549 cells; test: Annexin V/PI staining, FACS; settings: A549, 10 μM and 20 μM, 24 hours
Experimental: as §4

In the case of `CC(C)C(=O)OCC(=O)[C@@]12O[C@H](C3CCCCC3)O[C@@H]1C[C@H]1[C@@H]3CCC4=CC(=O)C=C[C@]4(C)[C@H]3[C@@H](O)C[C@@]12C` [ciclesonide], the “phosphorylation of nuclear STAT3 protein compared to a control” value [1] is reported as “reduced”, the “expression of Sox2” value [2] is reported as “reduced” and the “expression of C-myc” value [3] is reported as “reduced”. The “expression of Nanog” value [4] was “reduced”, the “expression of Snail” value [5] was “reduced” and the colony formation [6] was “inhibited”. For the same compound, the colony formation [7] was “inhibited”, the “number of apoptotic breast cancer cells (annexin V+)” value [8] was “increased” and the “number of apoptotic lung cancer cells (annexin V+)” value [9] was “increased”.
